Laboratory results reported in patent US10792324B2, “Compositions and methods for the treatment of orthopedic ailments” (K.L.R.M., LLC, priority 2016, dated 2020).

Experiments:
femur fracture [1] = test: Callus development analysis via qCT after femur fracture; assay type: in vivo, rat; conditions: osteotomy site
Procedure: As briefly mentioned above, efficacy of the present nutraceutical composition was tested. Fifty-eight male Sprague-Dawley rats (10 weeks old, body weight (BW): 344±11 g) were used for this study, which was approved by the Institutional Animal Care and Use Committee of the Charles R. Drew University of Medicine and Science. The rats were housed for one week prior to experimental procedures to permit acclimatization and then randomly assigned to three groups. The control group (n=19 rats) received 0.2 ml of vehicle composed of 10% dimethyl sulfoxide (DMSO), peanut butter and water by retro-lingual administration. The tadalafil group (n=20 rats) was given a daily oral dose of 2.0 mg/kg body weight (BW) of the PDE5 inhibitor, tadalafil (Eli Lilly, Indianapolis, Ind.), mixed with vehicle. […] The COMB-4 group (Naturex, […]=19 rats), that is, the group receiving the nutraceutical composition in accordance with the present invention, received a combination of Muira puama (45 mg/kg body weight BW), Paullinia cupana (45 mg/kg BW), ginger (45 mg/kg BW) and L-citrulline (133 mg/kg BW) dissolved in vehicle. The appropriate rat dose of each of the four components of COMB-4 was calculated based on the equivalent recommended human daily dose as previously reported. See International Patent Publication Number WO 2012/067745 A 1 for more details on the ingredients in COMB-4, ranges of ingredients, and the beneficial effects thereof in treating Erectile Dysfunction and cardiovascular disease. All animals received the vehicle only for the three days prior to surgery to get the animals adapted to the taste, and began receiving either their respectively assigned control or experimental daily dose of tadalafil or COMB-4 on the same day right after the fracture (day 0). All surgeries were performed by one orthopedic surgeon who was blinded to the rats' experimental assignment. Anesthesia was induced with 3% isoflurane and maintained with 2.5% isoflurane throughout the surgery. All rats received subcutaneous injections of buprenorphine 0.05 mg/kg body weight for pre- and post-operative pain control. Each rat then underwent a unilateral femur fracture with internal fixation. […] The underlying fascia was incised at the medial patellar tendon border and the patella was dislocated laterally. The trochlea was opened with a 1.0 mm drill bit and the intramedullary canal and greater trochanter were […] 21-3 gauge hypodermic needle. The intramedullary canal was sequentially […] 18-gauge needle, and the epicondyle was further opened with a 16-gauge needle. The femoral shaft was accessed by sweeping the vastus medialis laterally. A cat claw scissors (Petco, San Diego, Calif.) placed at the junction of the middle and distal one-third of the femoral shaft was used to make a transverse fracture. A randomizer table was used to determine laterality of the osteotomy. While maintaining control of both fracture fragments, a titanium compression intramedullary screw ([…], Davos, Switzerland) was applied in a retrograde manner while directly visualizing the fracture reduction. […] The fascia and skin were closed in two layers utilizing 4-0 Vicryl (Ethicon Inc., Somerville, N.J.) and VetBond skin glue (3M, St. Paul, Minn.). A small amount of triple antibiotic ointment ([…].) was applied to the skin. Range of motion at the hip and knee was performed to ensure there was no penetration of the screw proximally and that the patella was adequately tracking. Unprotected weight bearing was permitted immediately postoperatively, and on day 14, 5 rats from each group were euthanized using inhalational CO2 and femora were harvested for qCT (quantitative computerized tomography) and histological evaluation. On day 42, fifteen (15) rats from each group were euthanized for qCT and histological evaluation. The remaining rats were euthanized for biomechanical testing. Mineral Content and Callus Volume. […]

femur fracture [2] = test: Biomechanical evaluation (torsion to failure) of healing femur fracture; assay type: in vivo, rat
Procedure: As briefly mentioned above, efficacy of the present nutraceutical composition was tested. Fifty-eight male Sprague-Dawley rats (10 weeks old, body weight (BW): 344±11 g) were used for this study, which was approved by the Institutional Animal Care and Use Committee of the Charles R. Drew University of Medicine and Science. The rats were housed for one week prior to experimental procedures to permit acclimatization and then randomly assigned to three groups. The control group (n=19 rats) received 0.2 ml of vehicle composed of 10% dimethyl sulfoxide (DMSO), peanut butter and water by retro-lingual administration. The tadalafil group (n=20 rats) was given a daily oral dose of 2.0 mg/kg body weight (BW) of the PDE5 inhibitor, tadalafil (Eli Lilly, Indianapolis, Ind.), mixed with vehicle. […] The COMB-4 group (Naturex, […]=19 rats), that is, the group receiving the nutraceutical composition in accordance with the present invention, received a combination of Muira puama (45 mg/kg body weight BW), Paullinia cupana (45 mg/kg BW), ginger (45 mg/kg BW) and L-citrulline (133 mg/kg BW) dissolved in vehicle. The appropriate rat dose of each of the four components of COMB-4 was calculated based on the equivalent recommended human daily dose as previously reported. See International Patent Publication Number WO 2012/067745 A 1 for more details on the ingredients in COMB-4, ranges of ingredients, and the beneficial effects thereof in treating Erectile Dysfunction and cardiovascular disease. All animals received the vehicle only for the three days prior to surgery to get the animals adapted to the taste, and began receiving either their respectively assigned control or experimental daily dose of tadalafil or COMB-4 on the same day right after the fracture (day 0). All surgeries were performed by one orthopedic surgeon who was blinded to the rats' experimental assignment. Anesthesia was induced with 3% isoflurane and maintained with 2.5% isoflurane throughout the surgery. All rats received subcutaneous injections of buprenorphine 0.05 mg/kg body weight for pre- and post-operative pain control. Each rat then underwent a unilateral femur fracture with internal fixation. […] The underlying fascia was incised at the medial patellar tendon border and the patella was dislocated laterally. The trochlea was opened with a 1.0 mm drill bit and the intramedullary canal and greater trochanter were […] 21-3 gauge hypodermic needle. The intramedullary canal was sequentially […] 18-gauge needle, and the epicondyle was further opened with a 16-gauge needle. The femoral shaft was accessed by sweeping the vastus medialis laterally. A cat claw scissors (Petco, San Diego, Calif.) placed at the junction of the middle and distal one-third of the femoral shaft was used to make a transverse fracture. A randomizer table was used to determine laterality of the osteotomy. While maintaining control of both fracture fragments, a titanium compression intramedullary screw ([…], Davos, Switzerland) was applied in a retrograde manner while directly visualizing the fracture reduction. […] The fascia and skin were closed in two layers utilizing 4-0 Vicryl (Ethicon Inc., Somerville, N.J.) and VetBond skin glue (3M, St. Paul, Minn.). […] Unprotected weight bearing was permitted immediately postoperatively, and on day 14, 5 rats from each group were euthanized using inhalational CO2 and femora were harvested for qCT (quantitative computerized tomography) and histological evaluation. […]

[3] = Newly formed Total Callus (>299 mg/cm^3), Day 14, mean ± S.D.
[4] = Newly formed Total Callus (>299 mg/cm^3), Day 42, mean ± S.D.
[5] = Newly formed Total Callus (>500 mg/cm^3), Day 14, mean ± S.D.
[6] = Newly formed Total Callus (>500 mg/cm^3), Day 42, mean ± S.D.
[7] = day 42, relative to control group
[8] = day 42, torsion test, mean ± S.D.

CN1CC(=O)N2[C@H](c3ccc4c(c3)OCO4)c3[nH]c4ccccc4c3C[C@@H]2C1=O [Tadalafil, tadalafil]
Bone Density (femur fracture [1]; [3]): 458.4 ± 29.2 mg/mL | Callus Volume (femur fracture [1]; [3]): 44.9 ± 11.7 mm^3 | Mineral Content (femur fracture [1]; [3]): 20.8 ± 6.3 mg | Bone Density (femur fracture [1]; [4]): 510.0 ± 18.9 mg/mL | Callus Volume (femur fracture [1]; [4]): 66.3 ± 22.3 mm^3 | Mineral Content (femur fracture [1]; [4]): 34.1 ± 12.7 mg | Callus Volume (femur fracture [1]; [5]): 16.4 ± 4.7 mm^3 | Mineral Content (femur fracture [1]; [5]): 11.0 ± 3.8 mg | Callus Volume (femur fracture [1]; [6]): 35.6 ± 12.6 mm^3 | Mineral Content (femur fracture [1]; [6]): 24.1 ± 8.3 mg | Bone Density (femur fracture [1]; Newly formed Total Callus, Day 14, mean ± S.D.): 665.0 ± 2.0 mg/mL | Bone Density (femur fracture [1]; Newly formed Total Callus, Day 42, mean ± S.D.): 697.2 ± 12.4 mg/mL | higher maximum strength (maximum torque) than control group (femur fracture [2]; [7]): 15% | higher stiffness than control group (femur fracture [2]; [7]): 28% | Maximum Torque (femur fracture [2]; [8]): 326.8 ± 138.0 Nmm | Torsional Stiffness (femur fracture [2]; [8]): 59.9 ± 31.1 Nmm/Deg. | Fracture Repair Stage (I, II, III or IV) (femur fracture [2]; day 42, torsion test, mean ± S.D., I = 1, II = 2, III = 3, IV = 4): 2.4 ± 0.5
